Laboratory results published in US10752584B2 (EMORY UNIVERSITY, priority 2016, dated 2020).
pEC50: −log10 of the molar value. Where two headings read alike, the source gives them in different places.

Key:
Format in all cases: cell-based
[1] = Cellular toxicity assay in Vero cells; conditions: African green monkey, read-out: Cytotoxicity
Method: (§1) The toxicity of the compounds was assessed in Vero, human PBM, CEM (human lymphoblastoid), MT-2, and HepG2 cells, as described previously (see Schinazi R. F., Sommadossi J.-P., Saalmann V., Cannon D. L., Xie M.-Y., Hart G. C., Smith G. A. & Hahn E. F. Antimicrob. Agents Chemother. 1990, 34, 1061-67). Cycloheximide was included as positive cytotoxic control, and untreated cells exposed to solvent were included as negative controls. The cytotoxicity IC50 was obtained from the concentration-response curve using the median effective method described previously (see Chou T.-C. & Talalay P. Adv. Enzyme Regul. 1984, 22, 27-55; Belen'kii M. S. & Schinazi R. F. Antiviral Res. 1994, 25, 1-11).

[2] = Cellular toxicity assay in human PBM cells; conditions: human, read-out: Cytotoxicity
Method: as §1

wild type HBV = assay: Anti-HBV assay in AD-38 cell line; conditions: Hepatitis B virus; for pEC50: read-out: Anti-HBV activity EC50; for EC90: read-out: Anti-HBV activity EC90
Method: The anti-HBV activity of the compounds was determined by treating the AD-38 cell line carrying wild type HBV under the control of tetracycline (see Ladner S. K., Otto M. J., Barker C. S., Zaifert K., Wang G. H., Guo J. T., Seeger C. & King R. W. Antimicrob. Agents Chemother. 1997, 41, 1715-20). Removal of tetracycline from the medium [Tet (−)] results in the production of HBV. The levels of HBV in the culture supernatant fluids from cells treated with the compounds were compared with that of the untreated controls. Control cultures with tetracycline [Tet (+)] were also maintained to determine the basal levels of HBV expression. 3TC was included as positive control.
The median effective concentrations (EC50) ranges of several of the compounds described herein against HBV are shown in Table 3: […]

[3] = Cellular toxicity assay in HepG2 cells; conditions: human, read-out: Cytotoxicity
Method: as §1

[4] = Cellular toxicity assay in CEM cells; conditions: human, read-out: Cytotoxicity
Method: as §1

[5] = AD-38 cells, HBV in culture supernatant

| SMILES | CC50 [1] [µM] | CC50 ([2]; human PBM cells) [µM] | pEC50 (wild type HBV; [5]) | EC90 (wild type HBV; [5]) [µM] | CC50 [3] [µM] | CC50 ([4]; CEM lymphoblastoid cells) [µM] | CC50 [2] [µM] | pEC50 (wild type HBV) | EC90 (wild type HBV) [µM] | CC50 [4] [µM] |
| --- | --- | --- | --- | --- | --- | --- | --- | --- | --- | --- |
| C#CCNC(=O)C(=O)c1c(C)c(C(=O)Nc2ccc(F)c(C#N)c2)n(C)c1C [Compound 7b, N-(3-cyano-4-fluorophenyl)-1,3,5-trimethyl-4-(2-oxo-2-(prop-2-yn-1-ylamino)acetyl)-1H-pyrrole-2-carboxamide] | > 100 | > 100 | 7.05 to 8.00 | 0.1 to 0.9 | > 100 | > 100 | – | – | – | – |
| C=CCn1cc(CNC(=O)C(=O)c2c(C)c(C(=O)Nc3ccc(F)c(F)c3)n(C)c2C)nn1 [Compound 8] | > 100 | – | – | – | 98.6 | – | 60.5 | 8.05 to 9.00 | 0.01 to 0.09 | 45.4 |
| C#CCNS(=O)(=O)c1cc(C(=O)Nc2ccc(F)c(F)c2)n(C)c1 [Compound 17, N-(3,4-Difluorophenyl)-1-methyl-4-(N-(prop-2-yn-1-yl)sulfamoyl)-1H-pyrrole-2-carboxamide] | 41 | > 100 | 6.05 to 7.00 | 1 to 9 | – | 53 | – | – | – | – |
| C=CCNC(=O)C(=O)c1cc(C(=O)Nc2ccc(F)c(F)c2)n(C)c1 [Compound 25, 4-(2-(allylamino)-2-oxoacetyl)-N-(3,4-difluorophenyl)-1-methyl-1H-pyrrole-2-carboxamide] | 68.1 | > 100 | 7.05 to 8.00 | 1 to 9 | > 100 | > 100 | – | – | – | – |
| Cn1cc(C(=O)C(=O)Nc2nccs2)cc1C(=O)Nc1ccc(F)c(F)c1 [Compound 26, N-(3,4-difluorophenyl)-1-methyl-4-(2-oxo-2-(thiazol-2-ylamino)acetyl)-1H-pyrrole-2-carboxamide] | 31.2 | > 100 | 6.05 to 7.00 | 1 to 9 | > 100 | > 100 | – | – | – | – |
| Cn1cc(C(=O)C(=O)NOC2CCCC2)cc1C(=O)Nc1ccc(F)c(F)c1 [Compound 27, 4-(2-((cyclopentyloxy)amino)-2-oxoacetyl)-N-(3,4-difluorophenyl)-1-methyl-1H-pyrrole-2-carboxamide] | 80.1 | – | 7.05 to 8.00 | 1 to 9 | > 100 | 37.9 | – | – | – | – |
| Cn1cc(C(=O)C(=O)Nc2ccccc2)cc1C(=O)Nc1ccc(F)c(F)c1 [Compound 28, N-(3,4-difluorophenyl)-1-methyl-4-(2-oxo-2-(phenylamino)acetyl)-1H-pyrrole-2-carboxamide] | 13.4 | – | 7.05 to 8.00 | 1 to 9 | > 100 | > 100 | – | – | – | – |
| Cn1cc(C(=O)C(=O)NCC#N)cc1C(=O)Nc1ccc(F)c(F)c1 [Compound 30, 4-(2-((cyanomethyl)amino)-2-oxoacetyl)-N-(3,4-difluorophenyl)-1-methyl-1H-pyrrole-2-carboxamide] | 91.4 | – | 5.05 to 6.00 | 1 to 9 | > 100 | > 100 | – | – | – | – |
| Cn1cc(C(=O)C(=O)N2CCOCC2)cc1C(=O)Nc1ccc(F)c(F)c1 [Compound 31, N-(3,4-difluorophenyl)-1-methyl-4-(2-morpholino-2-oxoacetyl)-1H-pyrrole-2-carboxamide] | 41.9 | > 100 | 7.05 to 8.00 | 1 to 9 | 93.9 | > 100 | – | – | – | – |
| Cn1cc(C(=O)C(=O)N2CC(F)(F)C2)cc1C(=O)Nc1ccc(F)c(F)c1 [Compound 32, 4-(2-(3,3-difluoroazetidin-1-yl)-2-oxoacetyl)-N-(3,4-difluorophenyl)-1-methyl-1H-pyrrole-2-carboxamide] | > 100 | > 100 | 5.05 to 6.00 | 1 to 9 | > 100 | > 100 | – | – | – | – |
| C#CCNC(=O)C(=O)c1c(C)c(C(=O)Nc2ccc(OC(F)(F)F)cc2)n(C)c1C [Compound 54, 1,3,5-trimethyl-4-(2-oxo-2-(prop-2-yn-1-ylamino)acetyl)-N-(4-(trifluoromethoxy)phenyl)-1H-pyrrole-2-carboxamide] | 6 | 3 | 5.05 to 6.00 | – | – | 4 | – | – | – | – |
